The subject of one experiment is GluN1KD mice. Put plainly: Open field test in GluN1KD mice and WT littermates. It is filed as in vivo. To be noted: 10 mg/kg; for Locomotor Activity (total distance traveled) / Stereotypy (total stereotypic movements) / Vertical Activity (total): mean±SEM. The source says:
Functional NMDARs are composed of a common GluN1 subunit and one of four GluN2 subunits (GluN2A-GluN2D) combined in an undetermined ratio to make the heteromeric receptor complex. Recent studies using post mortem prefrontal cortex samples from patients with SCZ and depression, display a series of changes in NMDAR regulation. Endocannabinoids, via CB1Rs, control the presence of NR1 C1 subunits in the neural membrane which has implications for psychosis and SCZ. […] The GluN1KD (NMDAR hypofunction model) mouse line expresses 5-10% of the normal level of the subunit. GluN1KD mice display behavioural abnormalities that have been related to SCZ; these behaviours are normalized by the antipsychotics haloperidol and clozapine. At the dopamine level, GluN1KD mice have remodelled dopamine neurons, leading to a state of hyperdopaminergia, manifesting as an increase in tonic firing rates of dopaminergic neurons (Ferris et al., 2014).
(§1) Adult (>P70) GluN1-knockdown (GluN1KD—F1: C571Bl/6J x 129S1/SvlmJ) and DAT-knockout (DATKO—C57Bl/6J), balanced for sex, were treated with either vehicle (1:1:18-Tween80:95% ethanol:saline) or a novel CB1 negative allosteric modulator (CB1 NAM), ABM300, at 10 mg/kg, was tested in behavioural assays, and compared to littermate controls. Locomotor, stereotypic movements and vertical activity were tested, along with anxiety/mania and sensorimotor gating behaviours. All data were analyzed with two- or three-way ANOVA, as appropriate, and corrected for multiple comparisons.
Classically, locomotor output has been used as a gold standard for the measure of dopamine system dysfunction. The role of dopamine in movement control is well defined and, in its simplest forms, testing for hyperactivity is based on the premise that enhanced dopaminergic activity in rodents leads to enhanced motor activity (van den Buuse et al., 2010). Locomotor, stereotypic and vertical activity was recorded using digital activity monitors, quantifying horizontal and vertical activity, along with repetitive behaviour, via infrared beam breaks. GluN1 KD and DATKO display basal hyperactivity, with increases in stereotypic behaviours which can be ameliorated with antipsychotics (Peleg-Raibstein et al., 2008).

The next experiment addresses T1, cannabinoid CB1 receptor (Homo sapiens, UniProt P21554).
T1 construct: host or cells: HEK293 CB1 β-arrestin cells
Put plainly: PathHunter β-Arrestin assay (allosteric inhibition of agonist Emax). It is filed as cell-based. To be noted: FIG. 1; reduction in Emax not overcome by higher concentrations of agonist. The source says:
PathHunter™ enzyme fragment complementation is the most important method to measure β-arrestin recruitment. PathHunter™ β-Arrestin assays developed by DiscoveRX are revolutionary high-throughput screening assays for monitoring GPCR activation following ligand stimulation, without an imaging instrument, fluorescent protein tag, or radioactivity.
Instead, the assays detect GPCR activation through binding of β-arrestin to the expressed GPCR of interest, and measure the interaction of the two proteins using enzyme fragment complementation (EFC). The EFC approach offers a range of benefits for screening, including signal amplification and robust performance.
The larger portion of β-gal, termed EA for enzyme acceptor, is fused to the C-terminus of β-arrestin. The smaller, complementing fragment of β-gal, the ProLink™ tag, is expressed as a fusion protein with the GPCR of interest at the C-terminus. Upon activation, the GPCR is bound by β-arrestin. The interaction of β-arrestin and the GPCR forces the interaction of ProLink and EA, thus allowing complementation of the two fragments of β-gal and the formation of a functional enzyme capable of hydrolyzing substrate and generating a […] signal.
Using the PathHunter™ CB1 kit from DiscoveRX, a cannabinoid CB1 receptor agonist is added and activates the receptor, EA, which is fused to the C-terminus of β-arrestin, and then interacts with the ProLink™ tag which is fused to the CB1 receptor. This will result in the […] signal that is recorded by a luminescence plate reader. The […] signal is directly related to the activation of the receptor, therefore a higher concentration of agonist will yield a larger […] signal. The cannabinoid agonist is added in increasing concentrations to obtain an agonist dose response curve. With pre-incubation of a potential allosteric modulator, either an enhancement of agonist activity with an allosteric enhancer or a decrease in the maximal response of the agonist with an allosteric inhibitor is expected.
All raw data are obtained as luminescence (relative light units), and are normalised and presented as a percentage of the maximal response for the cannabinoid CB1 receptor agonist CP55,940 (2-[(1R,2R,5R)-5-hydroxy-2-(3-hydroxypropyl)cyclohexyl]-5-(2-methyloctan-2-yl)phenol).
The PathHunter™ β-Arrestin assay (from DiscoveRX, Fremont, USA) was performed as follows. HEK293 CB1 β-arrestin cells were plated 48 hours before use and incubated at 37° C., 5% CO2 in a humidified incubator. Test compounds were dissolved in dimethylsulfoxide (DMSO) and diluted in optimized cell culture (OCC, as supplied by DiscoveRX) media to the required concentrations. 5 μL of test compound or vehicle solution was added to each well and incubated for 60 minutes at 37° C., 5% CO2 in a humidified incubator. 5 μL of increasing concentrations of anandamide was added to each well followed by a 90-minute incubation at 37° C., 5% CO2 in a humidified incubator. 55 μL of detection reagent (as supplied by DiscoveRX) was then added, followed by a further 90 minute incubation at room temperature in the dark. Chemiluminescence, reported in relative light units (RLU—a dimensionless value, standardised as a % of maximum stimulation with anandamide), was measured on a standard luminescence plate reader.
Data were plotted as % of maximal stimulation (Emax) caused by agonist versus the logarithm of concentration of agonist, in the presence or absence of a fixed concentration of test compound (modulator) or vehicle. For example, stimulation in the presence of agonist alone will give a value for stimulation expressed in RLU, which can be expressed as a range from 0% (at lowest agonist concentration, e.g., 1 nM) to 100% (at the highest agonist concentration, e.g., 10 μM). […]

In a further experiment the test system is DATKO mice. Put plainly: Pre-pulse inhibition (PPI) of acoustic startle response. The format is in vivo. To be noted: 10 mg/kg. Here is the method: as §1
Loss of PPI is a common symptom found in SCZ and is widely accepted as an endophenotype. It is commonly considered an “interface” of psychosis and cognition. PPI deficits have been described in other psychiatric diseases; during acute mania in BD (Perry et al., 2001). PPI was measured via automated startle boxes. GluN1 KD and DATKO mice all display deficits in PPI, and this behaviour is responsive to treatment with antipsychotics.

[1] abbreviates: WT (F1: C57Bl/6J x 129S1/SvlmJ) mice, open field.

T1 sequence (P21554 whole entry): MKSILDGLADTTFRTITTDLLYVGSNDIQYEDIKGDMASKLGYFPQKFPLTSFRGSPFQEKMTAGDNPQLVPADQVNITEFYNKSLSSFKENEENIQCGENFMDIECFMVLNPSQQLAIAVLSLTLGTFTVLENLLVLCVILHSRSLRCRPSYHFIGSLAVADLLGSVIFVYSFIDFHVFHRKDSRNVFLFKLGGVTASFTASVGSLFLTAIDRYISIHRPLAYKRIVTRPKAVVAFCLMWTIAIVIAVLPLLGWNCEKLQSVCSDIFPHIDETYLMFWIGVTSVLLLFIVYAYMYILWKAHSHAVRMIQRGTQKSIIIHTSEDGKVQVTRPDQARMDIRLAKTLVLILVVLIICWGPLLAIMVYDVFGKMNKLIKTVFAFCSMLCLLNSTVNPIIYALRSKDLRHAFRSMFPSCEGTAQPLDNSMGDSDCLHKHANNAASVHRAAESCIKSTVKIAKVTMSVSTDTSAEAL

For `CCc1c(-c2nnc(Nc3ccccc3)o2)[nH]c2ccc(Cl)cc12` [ABM300, 5-(5-Chloro-3-ethyl-1H-indol-2-yl)-N-phenyl-1,3,4-oxadiazol-2-amine], in the experiment on GluN1KD mice (GluN1KD mice), the “effect on hyperactivity (in words)” value is “reduces hyperactivity”. Moreover, in the experiment on GluN1KD mice (GluN1KD mice, open field), the “effect on abnormal stereotypic behaviours (in words)” value was “reduces abnormal stereotypic behaviours”, the “effect on abnormal vertical exploration (risk-taking behaviour) (in words)” value is on record as “reduces abnormal vertical exploration”, the “Locomotor Activity (total distance traveled)” value is reported as 5857 ± 1242 cm and the “Stereotypy (total stereotypic movements)” value stood at 891 ± 93. Besides, in the experiment on GluN1KD mice (GluN1KD mice, open field), the “Vertical Activity (total)” value was determined as 479 ± 142. Also, in the experiment on GluN1KD mice (setting [1]), the “Locomotor Activity (total distance traveled)” value is on record as 688 ± 193 cm, the “Stereotypy (total stereotypic movements)” value is 298.80 ± 45 and the “Vertical Activity (total)” value amounted to 43.91 ± 26. Besides, the type of modulation entry at cannabinoid CB1 receptor was “allosteric inhibitor (negative allosteric modulator)”. The “effect on sensorimotor gating deficits, pre-pulse inhibition (in words)” value in the experiment on DATKO mice was “rescues sensorimotor gating deficits”.

The record behind these values is US20220257569A1, “INDOLE-OXADIAZOLE COMPOUNDS AND THEIR THERAPEUTIC USE” (THE GOVERNING COUNCIL OF THE UNIVERSITY OF TORONTO, priority 2018, published 2022).
